The text below walks through data of US20100173900A1, “Strobilurins for Increasing the Resistance of Plants to Abiotic Stress” (BASF SE, priority 2008, published 2010).

The test system of test [1] is corn plants. Nature of the test: Corn behavior under freeze conditions (dead plants). The following applies: seed treatment 5 g a.s./100 kg seed, 3 h at −5 ° C. ten or eleven days after sowing, counted one day after freeze exposure. It is filed as in vivo. The method, then:
Exposure times and temperatures were selected to show sufficient damage to the plants so that treatment differences could be observed.
Corn seeds were treated with pyraclostrobin (5 g of active substance per 100 kg seed) or with azoxystrobin (5 g of active substance per 100 kg seed). The treatment was effected by means of a HEGE 11 seed treatment apparatus. One day after the treatment, the seeds were sown into pots with sandy loam soil. One part of the corn plants was exposed for 3 h to −5 ° C. ten days after sowing, and the other plants eleven days after sowing. In each case, the number of dead plants was counted one day after the freeze exposure. The results are compiled as mean percentage values (relative to 100% of living plants before exposure to freezing temperatures) in table 3 below.

In the next test the test system is cotton plants. Nature of the test: Cotton behavior under freeze conditions (dead plants). It is filed as in vivo. The following applies: 4 h at −5° C. in BBCH growth stage 10, counted three days after freeze exposure. On the procedure: Cotton seeds were treated either with pyraclostrobin (20 g of active substance per 100 kg seed) or with azoxystrobin (19 g of active substance per 100 kg seed). The treatment was effected by means of a HEGE 11 seed treatment apparatus. After the treatment, the seeds were sown into pots. When the cotton plants were in the BBCH growth stage 10, they were exposed for 4 h to −5° C. Three days after the freeze exposure, the number of dead plants was counted. The results are compiled as mean percentage values (relative to 100% of living plants before exposure to freezing temperatures) in table 8 below.

Test [2] deals with sugar beet plants. Nature of the test: Emergence behavior of sugar beet at cold temperature. It is filed as in vivo. As to conditions: seed treatment 30 g a.s./100 kg seed, kept at 10° C. On the procedure:
The emergence behavior of sugar beet plants the seeds of which had been treated with pyraclostrobin and which were exposed after sowing to cold temperatures was studied following the guidelines for germination testing according to the Association of Official Seed Analysts (AOSA, 2005). For this purpose, sugar beet seeds were treated with pyraclostrobin (30 g active substance per 100 kg seed). The treatment was effected by means of a HEGE 11 seed treatment apparatus. After the treatment, the seeds were sown into pots with a sandy loam soil/sand mixture (2:1 v/v; 2 seeds per pot). The pots were placed in an incubator and kept at 10° C. 13, 15, 16, 17 and 20 days after sowing (=DAP=days after planting), the number of seeds which had given rise to plants was counted. The results are compiled as mean values in table 4. A value of 100% means that all sown seeds have given rise to plants.

The subject of test [3] is corn plants. Nature of the test: Corn field trial under frost conditions, Beaver Crossing. The following applies: 5 g a.s./100 kg seed in addition to Maxim XL and Apron XL. It is filed as in vivo. The method, then: For avoiding fungal stress which could give misleading test results especially under cold temperature, all corn seeds were treated with Maxim XL (fludioxonil; 3.5 g of active substance per 100 kg seed) and Apron XL (mefenoxam; 1 g of active substance per 100 kg seed). A part of the seeds was additionally treated with pyraclostrobin (5 g of active substance per 100 kg seed). The treatment was effected by means of a HEGE 11 seed treatment apparatus. The seeds were sown every 5 days starting from Sep. 6, 2007 in 1.75″ deep on clean tilled soil in Beaver Crossing, NE, USA. Frost occurred on Oct. 22/23, 2007 (−0.1° C. for 1 h), Oct. 23/24 (−0.1° C. for 1 h), 2007 and Oct. 24/25, 2007 (0° C. for 1 h, −1.1° C. for 1.5 h and 0° C. for 1 h). 47 days after sowing (=DAP; days after planting), the number emerged plants and their height was assessed. 50 DAP, the extent of dead tissue was assessed. The results are compiled as mean values in table 11 below.

Test [4] concerns corn plants. Nature of the test: Emergence behavior of corn after seed treatment, cold and variable temperatures. The following applies: seed treatment 5 g a.s./100 kg seed, 7 days at 10° C., 4 days at 24° C., then 10° C. It is filed as in vivo. The method, then:
(§1) The emergence behavior of corn plants the seeds of which had been treated with pyraclostrobin and which were exposed after sowing to cold and variable temperatures was studied following the guidelines for germination testing according to the Association of Official Seed Analysts (AOSA, 2005). For this purpose, corn seeds were treated with pyraclostrobin (5 g active substance per 100 kg seed). The treatment was effected by means of a HEGE 11 seed treatment apparatus. After the treatment, the seeds were sown into sand trays (2×100 seeds per tray). The sand trays were placed in an incubator and submitted to following temperature regimen: 7 days at 10° C.-4 days at 24° C.-then 10 ° C. 9, 10 and 29 days after sowing (=DAP=days after planting), the number of seeds which had given rise to plants was counted. The results are compiled as mean values in table 1. A value of 100% means that all sown seeds have given rise to plants.

Test [5] deals with sugar beet plants. The test can be described thus: Sugar beet behavior under freeze conditions (dead plants). It is filed as in vivo. The following applies: seed treatment 30 g a.s./100 kg seed. On the procedure: Sugar beet seeds were treated with pyraclostrobin (30 g of active substance per 100 kg seed). The treatment was effected by means of a HEGE 11 seed treatment apparatus. After the treatment, the seeds were sown into pots with a sandy loam soil/sand mixture (2:1 v/v; 2 seeds per pot). One part of the sugar beet plants was exposed for 3 h to −5° C. when they were in the BBCH growth stage 10, and the other plants when they were in the BBCH growth stage 11. In each case, the number of dead plants was counted three days after the freeze exposure. The results are compiled as mean percentage values (relative to 100% of living plants before exposure to freezing temperatures) in table 5 below.

A further test concerns soybean plants. Nature of the test: Soybean behavior under freeze conditions (dead plants). It is filed as in vivo. The following applies: seed treatment 5 g a.s./100 kg seed, 3.5 h at −7° C. in BBCH growth stage 9, counted three days after freeze exposure. The method, then: Soybean seeds were treated with pyraclostrobin (5 g of active substance per 100 kg seed). The treatment was effected by means of a HEGE 11 seed treatment apparatus. After the treatment, the seeds were sown into pots. When the soybean plants were in the BBCH growth stage 9, they were exposed for 3.5 h to −7° C. Three days after the freeze exposure, the number of dead plants was counted. The results are compiled as mean percentage values (relative to 100% of living plants before exposure to freezing temperatures) in table 6 below.

In a further test the test system is spring wheat plants. The test can be described thus: Spring wheat behavior under freeze conditions (dead plants). It is filed as in vivo. The following applies: seed treatment 5 g a.s./100 kg seed, 2 h at −10° C. in BBCH growth stage 11, counted three days after freeze exposure. On the procedure: Spring wheat seeds were treated with pyraclostrobin (5 g of active substance per 100 kg seed). The treatment was effected by means of a HEGE 11 seed treatment apparatus. After the treatment, the seeds were sown into pots. When the spring wheat plants were in the BBCH growth stage 11, they were exposed for 2 h to −10° C. Three days after the freeze exposure, the number of dead plants was counted. The results are compiled as mean percentage values (relative to 100% of living plants before exposure to freezing temperatures) in table 7 below.

The subject of test [6] is corn plants. The test can be described thus: Corn field trial, Burrus Seed Farms. The following applies: 5 g a.s./100 kg seed in addition to Maxim XL and Apron XL, 35 DAP. It is filed as in vivo. On the procedure: For avoiding fungal stress which could give misleading test results especially under cold temperature, all corn seeds were treated with Maxim XL (fludioxonil; 3.5 g of active substance per 100 kg seed) and Apron XL (mefenoxam; 1 g of active substance per 100 kg seed). A part of the seeds was additionally treated with pyraclostrobin (5 g of active substance per 100 kg seed). The treatment was effected by means of a HEGE 11 seed treatment apparatus. On Sep. 26, 2007, the seeds were sown in Burrus Seed Farms, Illinois, USA. 35 days after sowing (=DAP; days after planting), the number of intact, injured and dead plants was assessed. The results are compiled as mean percentage values (relative to total number of plants=100%) in table 10 below.

Test [7] has as its system corn plants. The test can be described thus: Plant height (stem length) and root length of corn, cold and variable temperatures. It is filed as in vivo. As to conditions: seed treatment 5 g a.s./100 kg seed, cold/variable temperature regimen of example 1, 23 days after sowing. On the procedure:
as §1
23 days after sowing (see example 1) the stem length (=length from the soil line to the meristem) and the root length of the plants was measured. The results are compiled as mean values in table 2 below.

A further test deals with canola plants. The test can be described thus: Canola behavior under freeze conditions (dead plants). As to conditions: seed treatment 10 g a.s./100 kg seed, 1 h at −10° C. in BBCH growth stage 10, counted three days after freeze exposure. It is filed as in vivo, canola (oilseed rape). On the procedure: Canola (oilseed rape) seeds were treated either with pyraclostrobin (10 g of active substance per 100 kg seed) or with trifloxystrobin (10 g of active substance per 100 kg seed). The treatment was effected by means of a HEGE 11 seed treatment apparatus. After the treatment, the seeds were sown into pots. When the canola plants were in the BBCH growth stage 10, they were exposed for 1 h to −10° C. Three days after the freeze exposure, the number of dead plants was counted. The results are compiled as mean percentage values (relative to 100% of living plants before exposure to freezing temperatures) in table 9 below.

Structures are written as SMILES.

As to `CO/C=C(/C(=O)OC)c1ccccc1Oc1cc(Oc2ccccc2C#N)ncn1` [azoxystrobin], the Dead plants in the test with corn plants [1] was 31%; in the test on cotton plants (seed treatment 19 g a.s./100 kg seed), 24%.

Consider `COC(=O)N(OC)c1ccccc1COc1ccn(-c2ccc(Cl)cc2)n1` [pyraclostrobin], for which the Emergence in the test with sugar beet plants [2] (13 DAP) came to 23%; in the test with sugar beet plants [2] (15 DAP) it was 45%; in the test on sugar beet plants [2] (16 DAP), 57%; in the test with sugar beet plants [2] (17 DAP), 73%; in the test with sugar beet plants [2] (20 DAP), 90%; in the test with corn plants [4] (9 DAP), 81%. The Emergence in the test on corn plants [4] (10 DAP) stood at 97%; with corn plants [4] (29 DAP), 100%. Besides, the “No. of plants emerged” value in the test on corn plants [3] (47 DAP) is reported as 19. Moreover, the Plant height with corn plants [3] (47 DAP) is on record as 1.25 inches. Also, the Dead tissue in the test with corn plants [3] (50 DAP) is recorded as 63%. In addition, the Dead plants with corn plants [1] was 36%; in the test on sugar beet plants [5] (3 h at −5° C. in BBCH growth stage 10, counted three days after freeze exposure), 12%; in the test on sugar beet plants [5] (3 h at −5° C. in BBCH growth stage 11, counted three days after freeze exposure), 17%; in the test on soybean plants it was 18%; in the test with cotton plants (seed treatment 20 g a.s./100 kg seed), 17%; with spring wheat plants, 18%. Moreover, the Dead plants is recorded as 29% with corn plants [6] and 40% with canola plants. The same compound registered a Plants with injury in the test on corn plants [6] of 35%. In addition, the “Plants with no injury” value with corn plants [6] is given as 34%. In the test with corn plants [7], this compound came in with a Root length of 13.3 cm. This compound gave a Stem length in the test on corn plants [7] of 11.2 cm.

The compound `CON=C(C(=O)OC)c1ccccc1CON=C(C)c1cccc(C(F)(F)F)c1` [trifloxystrobin] showed a Dead plants in the test on canola plants of 42%.
